Test results taken from ChEMBL document CHEMBL4184238, “Synthesis and biological evaluation of a series of novel pyridinecarboxamides as potential multi-receptor antipsychotic drugs” (Bioorg Med Chem Lett, 2018).
Activity calls are given as the source filed them. The rule behind the calls is not given here.

Tests used:
[1] = Stability in human liver microsomes assessed as parent compound remaining level at 2 uM in presence of NADPH incubated for 30 mins by LC-MS/MS method; assay type: ADME, microsome; details: read-out: Stability
[2] = biological target: T1, 5-hydroxytryptamine receptor 2C (Homo sapiens, UniProt P28335); assay: Antagonistic activity at 5-HT2c receptor (unknown origin) after 10 mins by FLIPR assay; assay type: functional
T1 sequence (P28335 whole entry): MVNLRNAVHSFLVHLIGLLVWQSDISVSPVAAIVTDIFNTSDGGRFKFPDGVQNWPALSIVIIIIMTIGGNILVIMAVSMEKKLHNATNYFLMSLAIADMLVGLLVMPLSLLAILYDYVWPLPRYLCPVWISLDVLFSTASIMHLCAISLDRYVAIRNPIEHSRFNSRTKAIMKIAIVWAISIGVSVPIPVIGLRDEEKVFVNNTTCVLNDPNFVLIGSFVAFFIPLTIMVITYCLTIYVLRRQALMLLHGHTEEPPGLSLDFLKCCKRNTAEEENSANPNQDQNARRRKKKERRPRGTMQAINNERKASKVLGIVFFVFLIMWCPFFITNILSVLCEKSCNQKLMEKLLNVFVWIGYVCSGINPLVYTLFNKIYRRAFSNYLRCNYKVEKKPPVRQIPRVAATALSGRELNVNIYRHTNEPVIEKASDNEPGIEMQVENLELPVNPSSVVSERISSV

[3] = biological target: 5-hydroxytryptamine receptor 2A (Homo sapiens, UniProt P28223); assay: Antagonistic activity at human 5-HT2A receptor assessed as calcium flux after 10 mins by FLIPR assay; assay type: functional
[4] = biological target: T2, Alpha-1A adrenergic receptor (Homo sapiens, UniProt P35348); assay: Antagonistic activity at alpha-1A adrenergic receptor (unknown origin) after 10 mins by FLIPR assay; assay type: functional
T2 sequence (P35348 whole entry): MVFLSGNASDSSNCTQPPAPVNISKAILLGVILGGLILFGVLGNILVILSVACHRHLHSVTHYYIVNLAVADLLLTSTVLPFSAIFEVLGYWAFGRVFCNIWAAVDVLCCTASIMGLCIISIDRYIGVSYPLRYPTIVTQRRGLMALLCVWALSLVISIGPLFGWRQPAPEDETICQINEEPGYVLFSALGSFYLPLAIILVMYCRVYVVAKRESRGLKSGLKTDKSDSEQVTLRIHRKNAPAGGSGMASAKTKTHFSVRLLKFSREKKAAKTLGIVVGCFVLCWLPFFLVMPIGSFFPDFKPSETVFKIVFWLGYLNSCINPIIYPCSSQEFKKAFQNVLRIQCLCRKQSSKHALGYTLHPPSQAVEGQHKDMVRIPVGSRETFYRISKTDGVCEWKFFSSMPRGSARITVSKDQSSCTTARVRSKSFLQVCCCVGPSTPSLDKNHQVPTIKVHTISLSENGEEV

[5] = biological target: Histamine H1 receptor (Homo sapiens, UniProt P35367); assay: Antagonistic activity at histamine 1 receptor (unknown origin) after 10 mins by FLIPR assay; assay type: functional
[6] = system: Mus musculus; assay: Antipsychotic-like activity in ICR mouse assessed as inhibition of PCP-induced hyperlocomotion at 0.3 to 3 mg/kg, ig followed by animal habituation for 10 mins before 60 mins measurement period; assay type: functional, organism-based
[7] = system: Mus musculus; assay: Antipsychotic-like activity in ICR mouse assessed as inhibition of PCP-induced hyperlocomotion at 3 mg/kg, ig followed by animal habituation for 10 mins before 60 mins measurement period; assay type: functional, organism-based
[8] = biological target: D(2) dopamine receptor (Homo sapiens, UniProt P14416); assay: Antagonistic activity at human dopamine D2 receptor measured after 60 mins by Lance Ultra cAMP assay; assay type: functional
[9] = biological target: T3, 5-hydroxytryptamine receptor 1A (Homo sapiens, UniProt P08908); assay: Agonistic activity at human 5-HT1A receptor measured after 60 mins by Ultra Lance cAMP assay; assay type: functional
T3 sequence (P08908 whole entry): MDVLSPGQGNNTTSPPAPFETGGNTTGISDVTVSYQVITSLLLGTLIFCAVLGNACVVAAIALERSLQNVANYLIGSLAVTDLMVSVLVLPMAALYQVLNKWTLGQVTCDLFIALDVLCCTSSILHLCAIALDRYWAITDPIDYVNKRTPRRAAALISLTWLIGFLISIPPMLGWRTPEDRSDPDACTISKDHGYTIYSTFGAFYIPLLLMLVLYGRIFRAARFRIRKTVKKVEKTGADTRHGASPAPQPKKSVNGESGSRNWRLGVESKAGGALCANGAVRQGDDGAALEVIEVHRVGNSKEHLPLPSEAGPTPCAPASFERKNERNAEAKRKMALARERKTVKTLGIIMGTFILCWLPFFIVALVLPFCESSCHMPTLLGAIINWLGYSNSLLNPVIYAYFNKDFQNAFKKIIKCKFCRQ

Chain of D(2) dopamine receptor (P14416 whole entry): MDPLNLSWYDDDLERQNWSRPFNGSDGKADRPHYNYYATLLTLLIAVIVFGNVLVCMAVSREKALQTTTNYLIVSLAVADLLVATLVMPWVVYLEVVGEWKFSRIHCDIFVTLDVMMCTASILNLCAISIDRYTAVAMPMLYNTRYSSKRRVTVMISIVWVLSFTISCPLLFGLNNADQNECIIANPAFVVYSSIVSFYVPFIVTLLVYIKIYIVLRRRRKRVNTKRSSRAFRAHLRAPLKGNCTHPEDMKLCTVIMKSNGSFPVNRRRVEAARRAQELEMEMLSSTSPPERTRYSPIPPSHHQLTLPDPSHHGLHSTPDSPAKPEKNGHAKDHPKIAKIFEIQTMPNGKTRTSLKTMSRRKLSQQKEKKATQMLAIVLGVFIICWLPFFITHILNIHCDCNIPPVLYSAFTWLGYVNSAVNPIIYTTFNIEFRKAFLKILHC
Chain of 5-hydroxytryptamine receptor 2A (P28223 whole entry): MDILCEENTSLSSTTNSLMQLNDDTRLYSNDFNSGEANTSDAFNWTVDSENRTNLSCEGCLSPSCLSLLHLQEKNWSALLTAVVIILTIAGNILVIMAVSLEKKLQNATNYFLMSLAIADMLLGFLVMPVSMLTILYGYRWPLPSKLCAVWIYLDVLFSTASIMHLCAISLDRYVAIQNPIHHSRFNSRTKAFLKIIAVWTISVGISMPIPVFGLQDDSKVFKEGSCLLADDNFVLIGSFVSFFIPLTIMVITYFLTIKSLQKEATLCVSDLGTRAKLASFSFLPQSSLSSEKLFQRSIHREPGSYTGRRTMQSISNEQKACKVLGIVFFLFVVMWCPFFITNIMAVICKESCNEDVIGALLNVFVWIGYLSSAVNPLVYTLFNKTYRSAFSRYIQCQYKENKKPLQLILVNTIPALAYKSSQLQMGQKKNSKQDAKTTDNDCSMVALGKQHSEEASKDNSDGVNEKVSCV
Chain of Histamine H1 receptor (P35367 whole entry): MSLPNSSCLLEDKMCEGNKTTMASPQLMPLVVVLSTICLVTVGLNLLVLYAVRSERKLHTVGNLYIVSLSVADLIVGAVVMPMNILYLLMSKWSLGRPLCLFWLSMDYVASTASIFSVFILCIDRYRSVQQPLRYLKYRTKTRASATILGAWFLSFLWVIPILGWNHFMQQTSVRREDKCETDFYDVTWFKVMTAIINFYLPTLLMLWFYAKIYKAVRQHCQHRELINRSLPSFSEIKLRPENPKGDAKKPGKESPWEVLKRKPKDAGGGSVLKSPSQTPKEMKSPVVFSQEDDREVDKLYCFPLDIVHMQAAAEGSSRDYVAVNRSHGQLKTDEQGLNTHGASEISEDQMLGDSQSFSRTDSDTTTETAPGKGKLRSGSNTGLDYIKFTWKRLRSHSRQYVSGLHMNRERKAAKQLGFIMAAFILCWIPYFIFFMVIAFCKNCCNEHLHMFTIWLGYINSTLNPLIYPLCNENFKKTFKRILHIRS

| Compound | remaining at 0.5 h, 2 µM [1] [%] | IC50 [2] [nM] | IC50 [3] [nM] | IC50 [4] [nM] | IC50 [5] [nM] | Activity [6] | Activity [7] | IC50 [8] [nM] | EC50 [9] [nM] |
| --- | --- | --- | --- | --- | --- | --- | --- | --- | --- |
| CNC(=O)c1cc(OCCCCN2CCN(c3cccc4sccc34)CC2)ccn1 | 65 | 346 | 154 | 164 | 418 | Dose-dependent effect | Active | 24 | 1.2 |
| CNC(=O)c1cc(OCCCCN2CCN(c3cccc4sc(F)cc34)CC2)ccn1 | – | – | 64.9 | – | – | – | – | 8 | 0.7 |
| NC(=O)c1cc(OCCCCN2CCN(c3nsc4ccccc34)CC2)ccn1 | – | – | 523 | – | – | – | – | 42.6 | 16.5 |
| CNC(=O)c1cc(OCCCCN2CCN(c3cccc(Cl)c3Cl)CC2)ccn1 | – | – | 476 | – | – | – | – | 26.5 | 0.9 |
| CNC(=O)c1cc(OCCCCN2CCN(c3nsc4ccccc34)CC2)ccn1 | 65 | 70 | 113 | 71 | 923 | – | – | 11.4 | 2.2 |
| CNC(=O)c1ccnc(OCCCCN2CCC(c3noc4cc(F)ccc34)CC2)c1 | – | – | 62.4 | – | – | – | – | 299 | > 100000 |
| CCNC(=O)c1cc(OCCCCN2CCC(c3noc4cc(F)ccc34)CC2)ccn1 | – | – | 95.5 | – | – | – | – | 37.6 | 17.6 |
| CCNC(=O)c1ccnc(OCCCCN2CCC(c3noc4cc(F)ccc34)CC2)c1 | – | – | 67.5 | – | – | – | – | 65.5 | > 100000 |
| O=C(NC1CC1)c1ccnc(OCCCCN2CCC(c3noc4cc(F)ccc34)CC2)c1 | – | – | 53.9 | – | – | – | – | 51.7 | > 100000 |
| O=C1CCc2ccc(OCCCCN3CCN(c4cccc(Cl)c4Cl)CC3)cc2N1 | – | – | – | – | – | – | Active | – | – |
| CCNC(=O)c1cncc(OCCCCN2CCC(c3noc4cc(F)ccc34)CC2)c1 | – | – | 94.2 | – | – | – | – | 59 | > 100000 |
| CNC(=O)c1cccc(OCCCCN2CCC(c3noc4cc(F)ccc34)CC2)n1 | – | – | 134 | – | – | – | – | 9.3 | > 100000 |
| CNC(=O)c1cncc(OCCCCN2CCC(c3noc4cc(F)ccc34)CC2)c1 | – | – | 83.2 | – | – | – | – | 123 | > 100000 |
| CNC(=O)c1cccc(OCCCCN2CCN(c3nsc4ccccc34)CC2)c1 | 25 | – | – | – | – | – | – | – | – |
| O=C(NC1CC1)c1cc(OCCCCN2CCN(c3nsc4ccccc34)CC2)ccn1 | – | – | 324 | – | – | – | – | 65.2 | 6.2 |
| CNC(=O)c1cccc(OCCCCN2CCN(c3cccc4sccc34)CC2)n1 | – | – | 106 | – | – | – | – | 86.1 | 11.3 |
| CNC(=O)c1cccc(OCCCCN2CCN(c3ccc4ccsc4c3)CC2)n1 | – | – | 1280 | – | – | – | – | 412 | 117 |
| O=C(NC1CC1)c1cncc(OCCCCN2CCC(c3noc4cc(F)ccc34)CC2)c1 | – | – | 89.9 | – | – | – | – | 42.5 | > 100000 |
| CNC(=O)c1cccc(OCCCCN2CCN(c3cccc(Cl)c3Cl)CC2)n1 | – | – | 910 | – | – | – | – | 51.1 | 23.6 |
| O=C(NC1CC1)c1cc(OCCCCN2CCC(c3noc4cc(F)ccc34)CC2)ccn1 | – | – | 167 | – | – | – | – | 53.5 | 28.1 |
| CNC(=O)c1cc(OCCCCN2CCC(c3noc4cc(F)ccc34)CC2)ccn1 | 98 | 63 | 247 | 11 | 4420 | – | – | 59.8 | 9 |
| CNC(=O)c1cccc(OCCCCN2CCC(c3noc4cc(F)ccc34)CC2)c1 | 97 | – | – | – | – | – | – | – | – |
